Activity calls are given as the source filed them.
Key:
[1] = growth suppression of PTEN-null colon cells, dose response, cell-based, HCT116 PTEN knockout (AID 1047); type: functional;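 further: HCT116 colon tumor cells with PTEN knocked out; cells exposed to compound for 60 hours before readout; potency for loss of cell viability measured by luminescence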
Estrogen receptor = biological target: T1, Estrogen receptor (Homo sapiens, UniProt P03372);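 further: potency for inhibiting coactivator peptide recruitment to the receptor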
T1 sequence (P03372 whole entry): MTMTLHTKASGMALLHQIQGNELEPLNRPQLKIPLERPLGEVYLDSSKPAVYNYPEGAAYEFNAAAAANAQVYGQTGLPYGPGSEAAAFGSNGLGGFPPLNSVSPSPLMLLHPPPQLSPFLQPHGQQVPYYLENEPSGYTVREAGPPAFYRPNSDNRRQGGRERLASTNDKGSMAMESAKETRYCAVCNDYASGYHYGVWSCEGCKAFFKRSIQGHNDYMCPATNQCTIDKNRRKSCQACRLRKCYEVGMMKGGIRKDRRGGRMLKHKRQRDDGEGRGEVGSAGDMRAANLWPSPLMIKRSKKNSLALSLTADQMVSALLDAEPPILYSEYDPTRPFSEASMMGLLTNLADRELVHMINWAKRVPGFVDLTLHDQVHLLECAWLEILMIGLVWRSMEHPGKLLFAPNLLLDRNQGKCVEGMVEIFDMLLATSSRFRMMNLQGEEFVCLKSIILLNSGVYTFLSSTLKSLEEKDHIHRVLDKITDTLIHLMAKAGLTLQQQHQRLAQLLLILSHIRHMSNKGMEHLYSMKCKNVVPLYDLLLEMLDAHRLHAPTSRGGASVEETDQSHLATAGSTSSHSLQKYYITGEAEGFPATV

[2] = growth suppression of beta-catenin-knockout colon cells, dose response, cell-based, HCT116, human colon tumor (AID 1045); type: functional;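 further: HCT116 colon tumor cells with beta catenin knocked out; cells exposed to compound for 60 hours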
Fatty acid synthase = Fatty acid synthase (Homo sapiens, UniProt P49327); experiment: FAS thioesterase domain inhibitors, dose response, biochemical, kinetic fluorescence intensity (AID 624326); type: functional;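 further: rate of fluorescence rise from hydrolysis of a fluorogenic O-methyl fluorescein ester substrate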
[3] = biological target: T2, Heat shock factor protein 1 (Mus musculus, UniProt P38532); experiment: HSF1 potentiators in luciferase reporter cells, confirmation, cell-based, NIH3T3, luminescence, dose retest (AID 435004); type: functional;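 further: stress induced by proteasome inhibitor MG132 added 30 min after compound; luciferase reporter driven by HSF1 response element in NIH3T3 cells; actives raise luminescence as potentiators of the MG132 stress response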
T2 sequence (P38532 whole entry): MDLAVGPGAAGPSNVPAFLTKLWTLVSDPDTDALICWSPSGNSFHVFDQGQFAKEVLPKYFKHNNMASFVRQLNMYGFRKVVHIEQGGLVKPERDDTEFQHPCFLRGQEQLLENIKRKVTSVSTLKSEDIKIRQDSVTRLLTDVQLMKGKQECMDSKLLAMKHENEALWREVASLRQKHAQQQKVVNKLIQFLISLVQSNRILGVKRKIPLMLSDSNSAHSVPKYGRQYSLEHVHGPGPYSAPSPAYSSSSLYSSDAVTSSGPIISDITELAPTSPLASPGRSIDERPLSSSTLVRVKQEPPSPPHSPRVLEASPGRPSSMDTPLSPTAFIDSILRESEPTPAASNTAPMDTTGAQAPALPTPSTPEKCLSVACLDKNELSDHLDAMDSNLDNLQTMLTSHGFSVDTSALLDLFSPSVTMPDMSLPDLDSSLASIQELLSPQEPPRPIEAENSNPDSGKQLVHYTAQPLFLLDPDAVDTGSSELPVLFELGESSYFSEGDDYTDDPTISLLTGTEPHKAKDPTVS

[4] = P. falciparum Dd2 growth inhibitors, dose response, SYBR Green, cherry-picked samples (AID 1159567); type: functional, cell-based
cells = type: functional
Aminopeptidase N = biological target: T3, Aminopeptidase N (Plasmodium falciparum FcB1/Columbia, UniProt O96935); experiment: P. falciparum M1AAP inhibitors, biochemical, fluorogenic H-Leu-NHMec substrate, 1536-well (AID 1445); parameters: species or system Plasmodium falciparum 3D7, 3D7
T3 sequence (O96935 whole entry): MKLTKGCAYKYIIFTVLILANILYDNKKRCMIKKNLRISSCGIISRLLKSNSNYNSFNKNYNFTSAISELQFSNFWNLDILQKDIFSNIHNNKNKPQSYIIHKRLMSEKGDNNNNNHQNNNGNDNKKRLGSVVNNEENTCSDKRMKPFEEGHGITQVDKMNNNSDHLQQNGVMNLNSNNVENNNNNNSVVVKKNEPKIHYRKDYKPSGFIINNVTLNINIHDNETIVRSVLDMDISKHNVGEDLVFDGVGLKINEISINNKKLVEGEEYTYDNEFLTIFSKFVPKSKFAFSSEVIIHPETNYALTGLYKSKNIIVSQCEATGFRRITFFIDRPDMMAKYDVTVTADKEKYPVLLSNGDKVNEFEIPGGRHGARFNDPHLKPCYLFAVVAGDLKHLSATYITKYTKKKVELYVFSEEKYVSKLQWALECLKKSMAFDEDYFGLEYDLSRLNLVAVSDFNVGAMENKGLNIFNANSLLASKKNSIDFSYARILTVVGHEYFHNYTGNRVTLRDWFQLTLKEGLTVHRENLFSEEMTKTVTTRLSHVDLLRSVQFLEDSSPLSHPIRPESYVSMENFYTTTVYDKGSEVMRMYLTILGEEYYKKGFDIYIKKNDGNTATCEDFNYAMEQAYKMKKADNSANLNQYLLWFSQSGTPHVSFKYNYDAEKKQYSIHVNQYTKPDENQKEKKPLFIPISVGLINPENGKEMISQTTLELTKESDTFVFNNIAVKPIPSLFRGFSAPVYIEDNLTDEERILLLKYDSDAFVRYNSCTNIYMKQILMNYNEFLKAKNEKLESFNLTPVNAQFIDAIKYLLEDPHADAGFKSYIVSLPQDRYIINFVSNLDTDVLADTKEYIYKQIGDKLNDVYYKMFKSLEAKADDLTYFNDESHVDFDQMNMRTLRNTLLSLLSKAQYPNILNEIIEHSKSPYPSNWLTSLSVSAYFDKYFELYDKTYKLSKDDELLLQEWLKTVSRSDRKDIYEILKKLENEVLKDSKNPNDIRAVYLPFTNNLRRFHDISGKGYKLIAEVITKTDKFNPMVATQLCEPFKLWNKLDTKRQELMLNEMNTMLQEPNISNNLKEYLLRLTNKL

[5] = biological target: T4, Polyadenylate-binding protein 1 (Homo sapiens, UniProt P11940); experiment: PABP1 MLLE–PAM2 interaction inhibitors, dose response, miRNA deadenylation inhibitor project, biochemical, fluorescence polarization, Cy5-PAM2 peptide, secondary (AID 602260); type: functional; conditions: read-out: IC50_Mean
[6] = biological target: T4, Polyadenylate-binding protein 1; experiment: PABP1 MLLE–PAM2 binding inhibitor potency, dose response, biochemical, fluorescence polarization, FITC-PAM2 peptide (AID 602259); type: functional; conditions: read-out: IC50_Mean
[7] = NIH-3T3 fibroblast cytotoxicity, dose response, cytotoxicity control, cell-based, fluorescence, Alamar Blue, secondary assay (AID 2327); type: functional;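 further: NIH-3T3 mouse fibroblasts cultured with fluconazole at 8 µg/mL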
[8] = C. albicans growth with fluconazole, confirmation, fluorescence, retest (AID 2467); type: functional, cell-based
Streptococcus = experiment: Group A Streptococcus viability loss, dose response, counter-screen for streptokinase expression inhibitor project, luminescence, BacTiterGlo (AID 1915); type: functional, organism-based;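 further: potency for reduction of bacterial viability or growth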
Streptokinase A = biological target: T5, Streptokinase A (Streptococcus pyogenes serotype M1, UniProt P10520); experiment: S. pyogenes streptokinase expression inhibitors, potency, dose response, plasminogen activation absorbance, OD405 (AID 1914); type: functional, Streptococcus pyogenes M1 GAS;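 further: secreted streptokinase activity via plasminogen activation per viability signal from cell pellet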
T5 sequence (P10520 whole entry): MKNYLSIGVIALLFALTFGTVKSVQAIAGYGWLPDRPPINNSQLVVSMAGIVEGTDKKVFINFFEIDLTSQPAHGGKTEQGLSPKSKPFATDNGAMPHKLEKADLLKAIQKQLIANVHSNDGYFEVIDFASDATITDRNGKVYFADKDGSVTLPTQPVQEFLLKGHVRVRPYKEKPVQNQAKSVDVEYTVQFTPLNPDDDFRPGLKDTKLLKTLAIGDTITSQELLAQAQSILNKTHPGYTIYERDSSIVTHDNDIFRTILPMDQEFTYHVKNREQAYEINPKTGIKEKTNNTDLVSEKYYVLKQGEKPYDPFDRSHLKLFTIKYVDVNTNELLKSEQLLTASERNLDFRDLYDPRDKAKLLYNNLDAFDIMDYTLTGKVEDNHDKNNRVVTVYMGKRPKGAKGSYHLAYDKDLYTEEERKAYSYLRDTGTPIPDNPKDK

[9] = system: Streptococcus sp. 'group A'; experiment: growth inhibition of control SK(-) GAS strain, dose response, counter-screen for streptokinase expression inhibitor project, luminescence, kanamycin, BacTiterGlo, confirmation (AID 1900); type: functional, organism-based
[10] = inhibitors of HIV Env-driven cell fusion, dose response, cherry-pick (AID 652057); type: functional, cell-based
[11] = inhibitors of clade B AD8 Env fusion, dose response, cell-based, cherry-pick (AID 652062); type: functional;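 further: luciferase signal from cell-cell fusion driven by HIV-1 clade B AD8 Env; potency is for inhibitors of fusion seen as a drop in luminescence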

T4 sequence (P11940 whole entry): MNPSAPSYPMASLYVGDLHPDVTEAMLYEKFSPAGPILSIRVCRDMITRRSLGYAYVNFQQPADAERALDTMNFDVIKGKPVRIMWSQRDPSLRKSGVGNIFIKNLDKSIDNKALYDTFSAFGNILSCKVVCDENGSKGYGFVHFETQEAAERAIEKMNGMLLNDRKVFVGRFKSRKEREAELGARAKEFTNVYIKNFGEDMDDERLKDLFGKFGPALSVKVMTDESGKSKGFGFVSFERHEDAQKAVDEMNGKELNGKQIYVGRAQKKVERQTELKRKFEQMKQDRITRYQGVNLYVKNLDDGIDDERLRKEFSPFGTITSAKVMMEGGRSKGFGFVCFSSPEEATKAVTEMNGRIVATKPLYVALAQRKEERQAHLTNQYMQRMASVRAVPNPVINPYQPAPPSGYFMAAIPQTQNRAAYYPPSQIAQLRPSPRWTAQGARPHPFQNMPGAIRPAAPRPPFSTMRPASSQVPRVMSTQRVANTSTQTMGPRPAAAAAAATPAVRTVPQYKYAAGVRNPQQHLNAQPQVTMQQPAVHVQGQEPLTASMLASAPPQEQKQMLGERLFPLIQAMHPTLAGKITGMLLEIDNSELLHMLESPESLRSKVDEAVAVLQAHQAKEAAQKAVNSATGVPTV
Fatty acid synthase, sequence (P49327 whole entry, the tested form may be a part): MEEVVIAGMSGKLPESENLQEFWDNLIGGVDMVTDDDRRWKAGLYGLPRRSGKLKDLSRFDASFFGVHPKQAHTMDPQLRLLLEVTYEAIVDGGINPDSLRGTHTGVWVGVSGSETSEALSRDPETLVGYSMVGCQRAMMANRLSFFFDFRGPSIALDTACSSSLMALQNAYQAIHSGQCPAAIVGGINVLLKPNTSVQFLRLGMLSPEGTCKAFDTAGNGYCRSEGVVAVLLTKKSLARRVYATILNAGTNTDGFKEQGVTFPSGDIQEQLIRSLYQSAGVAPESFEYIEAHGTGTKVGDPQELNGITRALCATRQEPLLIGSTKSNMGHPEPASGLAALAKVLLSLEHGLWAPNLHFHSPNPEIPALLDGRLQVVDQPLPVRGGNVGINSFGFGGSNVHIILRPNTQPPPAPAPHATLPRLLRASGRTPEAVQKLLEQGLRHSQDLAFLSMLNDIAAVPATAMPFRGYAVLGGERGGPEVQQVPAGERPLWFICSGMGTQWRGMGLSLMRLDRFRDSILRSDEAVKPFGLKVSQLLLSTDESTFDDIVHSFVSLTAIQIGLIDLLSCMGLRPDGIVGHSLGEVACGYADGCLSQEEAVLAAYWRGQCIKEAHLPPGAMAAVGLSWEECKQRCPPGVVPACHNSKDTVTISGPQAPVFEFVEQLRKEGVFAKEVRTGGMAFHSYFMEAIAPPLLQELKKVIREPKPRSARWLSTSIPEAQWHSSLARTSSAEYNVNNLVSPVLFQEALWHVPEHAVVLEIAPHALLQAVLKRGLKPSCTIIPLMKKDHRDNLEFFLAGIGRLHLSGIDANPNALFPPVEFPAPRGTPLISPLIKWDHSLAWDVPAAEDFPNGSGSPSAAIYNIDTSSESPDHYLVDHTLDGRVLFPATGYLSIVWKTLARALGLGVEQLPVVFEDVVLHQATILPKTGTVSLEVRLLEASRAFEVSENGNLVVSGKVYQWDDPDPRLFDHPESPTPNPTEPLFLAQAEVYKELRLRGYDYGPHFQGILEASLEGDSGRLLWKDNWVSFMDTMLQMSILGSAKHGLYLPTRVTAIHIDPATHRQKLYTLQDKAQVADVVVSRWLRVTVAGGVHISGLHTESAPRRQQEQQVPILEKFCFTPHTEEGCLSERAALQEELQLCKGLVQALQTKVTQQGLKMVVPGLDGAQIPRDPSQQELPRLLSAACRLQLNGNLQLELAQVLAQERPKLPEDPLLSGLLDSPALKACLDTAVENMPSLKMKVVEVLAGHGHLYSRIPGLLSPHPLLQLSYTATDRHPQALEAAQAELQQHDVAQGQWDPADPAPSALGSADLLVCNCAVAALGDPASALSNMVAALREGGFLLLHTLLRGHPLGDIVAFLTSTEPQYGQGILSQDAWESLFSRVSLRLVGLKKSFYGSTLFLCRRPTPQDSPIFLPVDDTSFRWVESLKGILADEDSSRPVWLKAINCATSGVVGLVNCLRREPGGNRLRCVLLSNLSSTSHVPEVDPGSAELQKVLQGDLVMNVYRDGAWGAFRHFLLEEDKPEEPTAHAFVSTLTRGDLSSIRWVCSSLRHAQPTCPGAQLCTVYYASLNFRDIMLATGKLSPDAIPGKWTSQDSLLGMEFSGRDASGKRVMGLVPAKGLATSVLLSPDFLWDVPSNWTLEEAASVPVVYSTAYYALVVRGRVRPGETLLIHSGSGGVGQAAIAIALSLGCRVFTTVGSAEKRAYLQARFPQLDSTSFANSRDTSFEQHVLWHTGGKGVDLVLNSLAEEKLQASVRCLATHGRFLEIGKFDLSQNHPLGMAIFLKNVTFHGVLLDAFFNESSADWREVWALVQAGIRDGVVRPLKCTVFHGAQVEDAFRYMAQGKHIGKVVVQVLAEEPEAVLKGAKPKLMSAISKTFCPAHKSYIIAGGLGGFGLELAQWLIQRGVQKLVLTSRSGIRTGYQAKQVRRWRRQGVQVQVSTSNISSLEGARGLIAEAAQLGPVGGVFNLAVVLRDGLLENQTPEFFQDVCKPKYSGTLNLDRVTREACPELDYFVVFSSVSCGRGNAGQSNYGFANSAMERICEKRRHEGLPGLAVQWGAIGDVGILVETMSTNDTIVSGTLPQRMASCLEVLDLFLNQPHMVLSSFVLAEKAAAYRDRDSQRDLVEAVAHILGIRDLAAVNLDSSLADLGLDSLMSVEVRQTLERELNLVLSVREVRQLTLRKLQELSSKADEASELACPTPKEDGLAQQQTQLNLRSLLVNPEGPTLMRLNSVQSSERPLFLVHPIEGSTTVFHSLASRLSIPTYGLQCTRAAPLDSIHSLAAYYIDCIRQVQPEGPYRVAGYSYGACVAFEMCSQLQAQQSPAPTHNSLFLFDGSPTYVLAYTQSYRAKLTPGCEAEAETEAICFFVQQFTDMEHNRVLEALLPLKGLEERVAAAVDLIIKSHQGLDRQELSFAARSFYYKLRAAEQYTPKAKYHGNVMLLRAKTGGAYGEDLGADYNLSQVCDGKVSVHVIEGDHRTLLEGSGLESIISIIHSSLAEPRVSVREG

## N#C/C(=C(\O)Nc1ccc(Cl)cc1)c1nc2ccccc2[nH]1
[1]
  EC50: 31.9 µM (active)
Estrogen receptor
  IC50: 27.1 µM (active)
[2]
  EC50: 35.1 µM (active)

## O=C(Nc1nnc(SCc2ccccc2Cl)s1)c1cccc([N+](=O)[O-])c1
Fatty acid synthase
  IC50: 11 µM (active)

## Cc1cc(O)nc(-n2ncc(C#N)c2N)n1
[3]
  EC50: > 260 µM (inactive)

## Cc1ccc(-c2nnn(CC(=O)Nc3ccc4nn(-c5ccccc5)nc4c3)n2)o1
Estrogen receptor
  IC50: > 50 µM (not active)

## CO[C@H]1CN(C)C(=O)c2cc(NC(=O)c3ccccc3F)ccc2OC[C@H](C)N(C)C[C@H]1C
[4]
  AC50: > 39 µM (inactive)

## COc1cc(OC)c(OC)cc1CN(C)CCc1ccccn1
[3]
  EC50: > 260 µM (inactive)

## Cc1cc(C)n2nc(S(=O)(=O)Nc3c(Cl)cccc3Cl)nc2n1
cells
  IC50: 5.34 µM (active)

## COc1ccc2c3c(n(C)c2c1)[C@@H](CO)N(C(=O)Nc1ccc(F)cc1)CC31CN(C(=O)c2ccccc2F)C1
[4]
  AC50: 4.35 µM (active)

## O=C(Nc1nnc(C2=COCCO2)o1)c1ccc(F)cc1
cells
  IC50: 6.55 µM (active)

## CCOC(=O)N1CCN(C(=O)C(=O)NNC(=O)COc2ccc(Cl)cc2)CC1
Aminopeptidase N
  IC50: 106 µM (active)

## COc1cccc(-c2nc(=S)c3c(n2CCCO)CCCC3)c1
[5]
  IC50: > 66 µM (inactive)
[6]
  IC50: > 66 µM (inactive)

## COc1ccc(NC(=O)N(C)C[C@@H]2Oc3cc(-c4ccc(C)cc4)ccc3S(=O)(=O)N([C@@H](C)CO)C[C@H]2C)cc1
[4]
  AC50: 5.06 µM (active)

## O=C(NCc1ccc2c(c1)OCO2)C1CCCN(S(=O)(=O)c2cccnc2)C1 (centres undefined)
Aminopeptidase N
  IC50: 70.7 µM (active)

## O=C(O)/C(=C\c1ccc(-c2ccc(F)cc2)o1)c1ccccc1
Aminopeptidase N
  IC50: 51.4 µM (active)

## CCC(=O)Nc1nonc1-c1nc2ccccc2n1N(C(=O)CC)C(=O)CC
Estrogen receptor
  IC50: > 50 µM (not active)

## COCC(=O)N1CC2(C1)CN(Cc1ccccc1F)[C@@H](CO)c1[nH]c3cc(OC)ccc3c12
[4]
  AC50: 6.55 µM (active)

## Cc1ccc(NC(=O)c2cnn(-c3ccccc3)c2C)cc1
[3]
  EC50: > 260 µM (inconclusive)

## CCC(=O)c1ccc(OCC(=O)OCC(=O)N2CCc3ccccc3C2)cc1
cells
  IC50: 17.3 µM (active)

## CCCn1nnc(NC(=O)COc2ccc(CC)cc2)n1
cells
  IC50: 27.6 µM (active)

## CN(C)CCc1nc2ccccc2c(=O)n1-c1ccccc1
[3]
  EC50: > 260 µM (inactive)

## O=C(COc1ccc2c(-c3ccccc3)cc(=O)oc2c1)N[C@@H](Cc1c[nH]c2ccc(O)cc12)C(=O)O
Fatty acid synthase
  IC50: 6.9 µM (active)

## Brc1ccc(-c2nnc(-c3cccnc3)c3conc23)cc1
Estrogen receptor
  IC50: 6.62 µM (active)

## CC1=CC(=O)C=CC1=Nc1ccc(N(C)C)cc1
[5]
  IC50: 61.6 µM (inactive)
[6]
  IC50: > 66 µM (inactive)

## CSc1nc(NCc2ccco2)c2ccccc2n1
Estrogen receptor
  IC50: > 50 µM (not active)

## CC1(C)c2cc(O)ccc2OC1N1CCOCC1 (centres undefined)
[3]
  EC50: > 260 µM (inactive)

## CCS(=O)(=O)N1CCCCN2[C@H](CO)[C@H](c3ccc(-c4cccc(C#N)c4)cc3)[C@@H]2C1
[4]
  AC50: 12.5 µM (active)

## CCN(CCCNC(=O)CCCN1C(=O)COc2ccc(C)cc21)c1cccc(C)c1
[3]
  EC50: > 260 µM (inactive)

## Cc1ccc(CNC(=O)CSc2nc3ccsc3c(=O)n2NC(=O)c2ccccc2)cc1
Aminopeptidase N
  IC50: 11.1 µM (active)

## O=S(=O)(c1cccc(-c2cn3cccnc3n2)c1)N1CCCCCC1
Estrogen receptor
  IC50: 22.3 µM (active)

## COc1ccc(-c2ccc([C@@H]3[C@@H](CO)N4CCCCN(C(=O)c5ccc6c(c5)OCO6)C[C@@H]34)cc2)cc1
[4]
  AC50: 5.97 µM (active)

## CCOc1ccccc1OCCN1CCC(Cc2ccccc2)CC1
[7]
  EC50: > 150 µM (inactive)
[8]
  EC50: > 38 µM (not active)

## COc1cc2nc(CSc3nc(-c4ccc(F)cc4)cs3)nc(O)c2cc1OC
Streptococcus
  EC50: > 150 µM (not active)
Streptokinase A
  EC50: > 150 µM (not active)
[3]
  EC50: > 260 µM (inactive)
[9]
  EC50: > 150 µM (not active)

## COC(=O)Cn1c(=O)c2c(nc3n2CC(C)CN3CCc2ccccc2)n(C)c1=O (centres undefined)
[3]
  EC50: > 260 µM (inactive)

## COc1ccccc1-c1ccc2c(c1)O[C@H](CN(C)S(=O)(=O)c1ccc(C)cc1)[C@H](C)CN([C@@H](C)CO)S2(=O)=O
[10]
  AC50: 2.84 µM (active)
[11]
  AC50: 2.97 µM (active)

## CO[C@@H]1CN(C)C(=O)c2cc(NC(=O)c3ccc(Oc4ccccc4)cc3)ccc2OC[C@H](C)NC[C@@H]1C
[4]
  AC50: 5.99 µM (active)

Reference: ChEMBL document CHEMBL1201862, “PubChem BioAssay data set” (2004)
